The values below come from patent publication US20230072421A1, “TARGETED RADIOPHARMACEUTICALS FOR THE DIAGNOSIS AND TREATMENT OF PROSTATE CANCER” (Bayer AS, priority 2019, published 2023).

For test [1], the system named is VCaP cells. The test can be described thus: Cell proliferation assay (CellTiter-Glo, 5-day exposure), VCaP. Conditions: 4000 cells/well, Th-227 labelled at 375 kBq/nmol, mean of 1 to 6 experiments. The format is cell-based. Summed up: (§1)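 Thorium-227-labelled PSMA small-molecule ligands were tested on prostate cancer lines seeded at 4000 cells/well (VCaP) or 1000 cells/well (22Rv1, C4-2, LNCaP) and incubated overnight at 37 °C, 5% CO2. Viability was read by CellTiter-Glo luminescence at treatment start (sister plates) and after 5-day compound exposure.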
(ATP-based viability assays read luminescence as a measure of living cells.)

For test [2], the system named is C4-2 cells. The test can be described thus: Cell proliferation assay (CellTiter-Glo, 5-day exposure), C4-2. The format is cell-based. Conditions: C4-2, 1000 cells/well, Th-227 labelled at 375 kBq/nmol, mean of 1 to 6 experiments. Summed up:
as §1

The target of test [3] is T1, PSMA-expressing LNCaP cells (Homo sapiens, UniProt Q04609).
T1 construct: PSMA-expressing LNCaP cells; endogenous in cells; host or cells: LNCaP
The test can be described thus: Internalization assay (membrane bound and internalized Th-227). Conditions: 10 nM radiolabeled compound, Th-227 at 375 kBq/nmol, triplicates. It counts as cell-based. As to the method: For internalization assays 24 well plates (#3526, Corning) were coated with 200 μl Poly-L-Lysine (0.1 mg/ml, #3438-100-01, Fa. Cultrex) per well for 2 h at 37° C. […] Cells were incubated at 37° C. and 5% CO2 over night. On the following day 400 μl of the media were removed and a total of 200 μl growth medium added supplemented with PSMA-SMOLs labeled with Th-227 at 375 kBq/nmol in triplicates. Radiochemical purity of the labeling was analyzed by instant thin layer chromatography and found to be above 70% for all compounds used. The final concentration of radiolabeled SMOLs was in the test wells was 10 nM. Cells were incubated for 30 min or 2 h. After the incubation time supernatants were taken off and cells washed with PBS. Thereafter cells were washed twice with 0.2 ml 50 mM Glycine-HCl buffer (#55097, Sigma Aldrich) and once with PBS and the washing solutions combined in counting vials (#TK75-018, Fa. Corning) and subjected to gamma counting (1470 Wizard automatic gamma counter, Wallac). The resulting counts were attributed to membrane bound radioactivity. Cells were then lysed with 500 μl 0.3N NaOH (#181691.1211, Fa. PanReac AppliChem ITW Reagents) followed by another wash with 500 μl PBS. The NaOH lysate as well as the final wash were combined in vials and subjected to gamma counting as described above. Measured radioactivity was attributed to internalized fraction. Results were calculated as fmol of Th-227 per/10^cells in the membrane bound and internalized fractions from triplicate values.

The subject of test [4] is 22Rv1 cells. The test can be described thus: Cell proliferation assay (CellTiter-Glo, 5-day exposure), 22Rv1. The format is cell-based. Conditions: 22Rv1, 1000 cells/well, Th-227 labelled at 375 kBq/nmol, mean of 1 to 6 experiments. Summed up: as §1
For test [5], the system named is LNCaP cells. The test can be described thus: Cell proliferation assay (CellTiter-Glo, 5-day exposure), LNCaP. Conditions: LNCaP, 1000 cells/well; Th-227 labelled at 375 kBq/nmol; 5-day exposure; mean of 1 to 6 experiments. It counts as cell-based, human. The protocol:
Inhibition of cell proliferation of Thorium-227 labeled PMSA SMOL ligands was tested different prostate cancer cell lines, namely 22Rv1, VCaP, C4-2 (all from ATCC, Manassas, Va., USA) and LNCaP (DMSZ, Braunschweig). Cells were seeded using the following conditions in 384 well plates (Corning) in 30 μl of growth media at 4000 cells/well for VCaP cells and 1000 cells/well for 22Rv1, C4-2 and LNCaP cells.
Cells were cultivated an incubator at 37° C. and 5% C02 over night. On the following days cells were treated in triplicates with serial dilutions of PSMA-SMOLs labeled with Th-227 at a specific activity of 375 kBq/nmol (RCP>70% as assessed by iTLC analysis; compounds where RCP was between 50-70% in individual experiments are marked with an * in the table) using a D300e Digital Dispenser (Tecan). In sister plates cell viability at treatment start (d=0) was determined using CellTiter-Glo® assay (CTG, Promega, Madison, Wis., USA), by adding 30 μl per well CTG solution, incubation for 10 min and reading of Luminescence in a PheraStarFSX instrument (BMG Labtech). After a 5-day exposure in the presenced of test compounds, cell viability of treated or untreated control cells was determined again using CellTiter-Glo® assay (Promega, Madison, Wis., USA). […] The DRC software is a Biobook Spreadsheet that was developed by Bayer AG and Bayer Business Services on the IDBS E-Workbook Suite platform (IDBS: ID Business Solutions Ltd., Guildford, UK).

Structures are written as SMILES.

T1 sequence (Q04609 whole entry): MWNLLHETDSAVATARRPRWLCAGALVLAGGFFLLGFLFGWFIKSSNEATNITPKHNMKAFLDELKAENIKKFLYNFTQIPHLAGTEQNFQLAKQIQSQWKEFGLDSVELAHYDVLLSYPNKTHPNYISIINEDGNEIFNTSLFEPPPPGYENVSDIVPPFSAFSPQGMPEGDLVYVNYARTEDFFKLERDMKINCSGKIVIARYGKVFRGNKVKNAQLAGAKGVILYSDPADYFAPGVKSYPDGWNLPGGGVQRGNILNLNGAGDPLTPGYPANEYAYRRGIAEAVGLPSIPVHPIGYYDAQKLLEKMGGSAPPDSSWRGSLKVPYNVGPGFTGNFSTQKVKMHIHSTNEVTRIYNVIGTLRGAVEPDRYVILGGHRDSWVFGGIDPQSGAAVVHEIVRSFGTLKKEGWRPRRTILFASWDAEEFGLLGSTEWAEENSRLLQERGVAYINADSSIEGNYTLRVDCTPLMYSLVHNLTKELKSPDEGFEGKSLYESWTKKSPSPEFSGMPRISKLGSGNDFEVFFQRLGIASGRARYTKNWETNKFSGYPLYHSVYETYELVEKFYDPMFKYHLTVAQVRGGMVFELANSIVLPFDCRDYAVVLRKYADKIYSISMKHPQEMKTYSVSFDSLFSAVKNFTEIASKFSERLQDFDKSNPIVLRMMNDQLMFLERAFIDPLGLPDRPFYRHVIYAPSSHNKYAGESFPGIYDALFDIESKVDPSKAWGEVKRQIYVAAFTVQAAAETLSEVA

Consider `Cn1ccc2c(c1=O)[O][Th]13[O]c4c(ccn(C)c4=O)C(=O)NCCN(CCNC2=O)CC(Cc2ccc(NC(=O)CCC(=O)N[C@H](CCCNC(=N)N)C(=O)N[C@H](CCCNC(=N)N)C(=O)NC[C@H]4CC[C@H](C(=O)N[C@@H](Cc5ccc6ccccc6c5)C(=O)NCCCC[C@H](NC(=O)N[C@@H](CCC(=O)O)C(=O)O)C(=O)O)CC4)cc2)CN(CCNC(=O)c2ccn(C)c(=O)c2[O]1)CCNC(=O)c1ccn(C)c(=O)c1[O]3` (some centres unmarked) [Example 46-E-227Th], for which, in test [1], the “Proliferation assay on cancer cell lines by TTCs Default Pivot #3 IC50 [kBq/mL] VCap 4000cells 375kBq/nmol (mean)” value is given as 1.37 kBq/mL. For the same molecule, the “Proliferation assay on cancer cell lines by TTCs Default Pivot #3 IC50 [kBq/mL] C4-2 1000cells 375kBq/nmol (mean)” value in test [2] is recorded as 0.95 kBq/mL. Moreover, in test [3] (30 min incubation), the “Internalized in LNCaP fmol/10^6 cells 30 min” value came out at 34 fmol/10^6 cells and the “Membrane bound in LNCaP fmol/10^6 cells 30 min” value was found to be 63 fmol/10^6 cells. In test [3] (2 h incubation), the “Internalized in LNCaP fmol/10^6 cells 2 h” value was found to be 104 fmol/10^6 cells and the “Membrane bound in LNCaP fmol/10^6 cells 2 h” value is given as 234 fmol/10^6 cells. In addition, the “Proliferation assay on cancer cell lines by TTCs Default Pivot #3 IC50 [kBq/mL] 22Rv1 1000cells 375kBq/nmol (mean)” value in test [4] is reported as 0.68 kBq/mL. Further, in test [5], the “Proliferation assay on cancer cell lines by TTCs Default Pivot #3 IC50 [kBq/mL] LnCap 1000cells 375kBq/nmol (mean)” value is on record as 0.18 kBq/mL.
